Laboratory results: ChEMBL document CHEMBL1148281, “Carbonic anhydrase inhibitors: synthesis and topical intraocular pressure lowering effects of fluorine-containing inhibitors devoid of enhanced reactivity” (J Med Chem, 2004)

Columns and labels:
[1] = molecular target: Carbonic anhydrase 1 (Homo sapiens, UniProt P00915)
Description: In vitro inhibitory activity against human carbonic anhydrase I (hCAI)

[2] = molecular target: T1, Carbonic anhydrase 4 (Bos taurus, UniProt Q95323)
T1 sequence (Q95323 whole entry): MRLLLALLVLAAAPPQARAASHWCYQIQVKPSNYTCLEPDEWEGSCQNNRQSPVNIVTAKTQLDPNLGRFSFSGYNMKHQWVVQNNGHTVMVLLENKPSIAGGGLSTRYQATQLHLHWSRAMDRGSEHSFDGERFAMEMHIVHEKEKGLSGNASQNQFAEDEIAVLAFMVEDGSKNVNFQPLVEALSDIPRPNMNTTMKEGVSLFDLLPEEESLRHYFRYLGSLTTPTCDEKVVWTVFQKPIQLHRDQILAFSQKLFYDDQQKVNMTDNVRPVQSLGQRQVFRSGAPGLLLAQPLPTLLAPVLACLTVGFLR
Description: In vitro inhibitory activity against bovine carbonic anhydrase IV (CAIV)

[3] = molecular target: Carbonic anhydrase 2 (Homo sapiens, UniProt P00918)
Description: In vitro inhibitory activity against human carbonic anhydrase II (hCAII)

[4] = Reactivity against glutathione after 24 hours of incubation; format: functional
[5] = Reactivity against cysteine after 24 hours of incubation; format: functional

Sequence of Carbonic anhydrase 1 (P00915 whole entry): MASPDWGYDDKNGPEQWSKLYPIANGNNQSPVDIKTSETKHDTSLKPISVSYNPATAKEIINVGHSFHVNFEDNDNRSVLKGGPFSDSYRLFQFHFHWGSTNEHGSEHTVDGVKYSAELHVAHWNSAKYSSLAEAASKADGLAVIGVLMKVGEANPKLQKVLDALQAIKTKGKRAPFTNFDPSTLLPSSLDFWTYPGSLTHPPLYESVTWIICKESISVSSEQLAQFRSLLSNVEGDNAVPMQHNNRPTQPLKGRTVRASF

| Structure (SMILES) | Ki [1] [nM] | Ki [2] [nM] | Ki [3] [nM] | Reactivity [4] [%] | Reactivity [5] [%] |
| --- | --- | --- | --- | --- | --- |
| Cn1nc(S(N)(=O)=O)s/c1=N/C(=O)c1c(F)c(F)cc(F)c1F | 270 | 28 | 1.4 |  |  |
| NS(=O)(=O)c1ccc(CNS(=O)(=O)c2ccc(NC(=O)c3c(F)c(F)cc(F)c3F)cc2)cc1 |  | 54 |  |  |  |
| NS(=O)(=O)c1ccc(Nc2ccnc(NS(=O)(=O)c3c(F)c(F)cc(F)c3F)n2)cc1 | 320 | 21 | 13 |  |  |
| NS(=O)(=O)c1ccc(NS(=O)(=O)c2c(F)c(F)cc(F)c2F)cc1 | 1300 | 330 | 25 |  |  |
| NS(=O)(=O)c1nnc(NC(=O)Nc2c(F)c(F)c(F)c(F)c2F)s1 | 270 | 45 | 3.6 |  |  |
| NS(=O)(=O)c1ccc(CCNS(=O)(=O)c2ccc(NC(=O)c3c(F)c(F)cc(F)c3F)cc2)cc1 |  | 49 |  |  |  |
| NS(=O)(=O)c1ccc(NS(=O)(=O)c2ccc(NC(=O)c3c(F)c(F)cc(F)c3F)cc2)cc1 |  | 63 |  |  |  |
| NS(=O)(=O)c1ccc(NC(=O)c2c(F)c(F)cc(F)c2F)cc1 |  | 400 |  |  |  |
| NS(=O)(=O)c1ccc(CNC(=O)Nc2c(F)c(F)c(F)c(F)c2F)cc1 | 1000 | 50 | 15 |  |  |
| NS(=O)(=O)c1nnc(NS(=O)(=O)c2c(F)c(F)cc(F)c2F)s1 |  | 15 |  | 0 | 0 |
| NS(=O)(=O)c1ccc(CNS(=O)(=O)c2c(F)c(F)cc(F)c2F)cc1 |  | 135 |  |  |  |
| NS(=O)(=O)c1nnc(NS(=O)(=O)c2c(F)c(F)c(F)c(F)c2F)s1 |  |  |  | 68 | 76 |
| COc1ccc(NS(=O)(=O)c2c(F)c(F)c(F)c(F)c2F)cc1 |  |  |  | 96 | 98 |
| NS(=O)(=O)c1ccc(CCNC(=O)c2c(F)c(F)cc(F)c2F)cc1 |  | 94 |  |  |  |
| NS(=O)(=O)c1ccc(CNC(=O)c2c(F)c(F)cc(F)c2F)cc1 |  | 120 |  |  |  |
| NS(=O)(=O)c1nnc(NC(=O)c2c(F)c(F)cc(F)c2F)s1 |  | 24 |  |  |  |
| NS(=O)(=O)c1ccc(CCNS(=O)(=O)c2c(F)c(F)cc(F)c2F)cc1 |  | 76 |  |  |  |
| NS(=O)(=O)c1ccc(NC(=O)c2c(F)c(F)c(F)c(F)c2F)c(F)c1 |  |  |  | 49 | 55 |
| NS(=O)(=O)c1ccc(NS(=O)(=O)c2c(F)c(F)cc(F)c2F)c(F)c1 | 580 | 42 | 3.8 |  |  |
| NS(=O)(=O)c1ccccc1NC(=O)c1c(F)c(F)cc(F)c1F |  | 690 |  |  |  |

More lines, main results first:

| Ki [1] [nM] | Ki [2] [nM] | Ki [3] [nM] | Structure (SMILES) | Reactivity [4] [%] | Reactivity [5] [%] |
| --- | --- | --- | --- | --- | --- |
| 940 | 41 | 15 | NS(=O)(=O)c1ccc(CCNC(=O)Nc2c(F)c(F)c(F)c(F)c2F)cc1 |  |  |
|  | 430 |  | NS(=O)(=O)c1cccc(NC(=O)Nc2c(F)c(F)c(F)c(F)c2F)c1 |  |  |
| 1750 | 485 | 44 | NS(=O)(=O)c1ccccc1NC(=O)Nc1c(F)c(F)c(F)c(F)c1F |  |  |
|  | 42 |  | NS(=O)(=O)c1ccc(NC(=O)c2c(F)c(F)cc(F)c2F)c(Cl)c1 |  |  |
|  | 31 |  | NS(=O)(=O)c1ccc(NC(=O)c2c(F)c(F)cc(F)c2F)c(F)c1 | 0 | 0 |
| 760 | 63 | 18 | NS(=O)(=O)c1ccc(NC(=O)Nc2c(F)c(F)c(F)c(F)c2F)c(F)c1 |  |  |
| 1300 | 245 | 80 | NS(=O)(=O)c1ccc(NC(=O)Nc2c(F)c(F)c(F)c(F)c2F)c(Cl)c1 |  |  |
| 1960 | 360 | 95 | NS(=O)(=O)c1ccc(NC(=O)Nc2c(F)c(F)c(F)c(F)c2F)c(Br)c1 |  |  |
|  | 50 |  | NS(=O)(=O)c1ccc(NC(=O)c2c(F)c(F)cc(F)c2F)c(Br)c1 |  |  |
| 930 | 49 | 61 | NS(=O)(=O)c1ccc(NS(=O)(=O)c2c(F)c(F)cc(F)c2F)c(Cl)c1 |  |  |
|  | 430 |  | NS(=O)(=O)c1cccc(NC(=O)c2c(F)c(F)cc(F)c2F)c1 |  |  |
|  | 21 |  | NS(=O)(=O)c1ccc(NC(=O)Nc2c(F)c(F)c(F)c(F)c2F)cc1 | 0 | 0 |
| 740 | 58 | 16 | NS(=O)(=O)c1cc(S(N)(=O)=O)c(NC(=O)Nc2c(F)c(F)c(F)c(F)c2F)cc1Cl |  |  |
